Laboratory results taken from ChEMBL document CHEMBL3046247, “Anti-inflammatory and antioxidant activities of some extracts and pure natural products isolated from Rhus tripartitum (Ucria)” (Med Chem Res, 2010).
Converted amounts (≈) assume the structure as drawn.

What was measured:
Type in all cases: functional
[1] = Antioxidant activity assessed as trolox equivalent of ABTS radical scavenging activity at 20 min
[2] = Antioxidant activity assessed as inhibition of ABTS radical formation at 1 mg/ml measured at 10 min relative to trolox
[3] = Antioxidant activity assessed as inhibition of ABTS radical formation at 0.12 mg/ml measured at 15 min relative to trolox
[4] = Antioxidant activity assessed as inhibition of ABTS radical formation at 1 mg/ml measured at 15 min relative to trolox
[5] = Antioxidant activity assessed as trolox equivalent of ABTS radical scavenging activity at 5 min
[6] = system: Radical scavenging activity; assay: Antioxidant activity assessed as inhibition of DPPH radical formation at 1 mg/ml measured at 30 min relative to trolox
[7] = Antioxidant activity assessed as trolox equivalent of ABTS radical scavenging activity at 10 min
[8] = Antioxidant activity assessed as inhibition of ABTS radical formation at 0.25 mg/ml measured at 20 min relative to trolox
[9] = system: Radical scavenging activity; assay: Antioxidant activity assessed as inhibition of DPPH radical formation measured at 30 min relative to trolox
[10] = Antioxidant activity assessed as inhibition of ABTS radical formation at 0.5 mg/ml measured at 15 min relative to trolox
[11] = Antioxidant activity assessed as inhibition of ABTS radical formation at 0.03 mg/ml measured at 5 min relative to trolox
[12] = Antioxidant activity assessed as inhibition of ABTS radical formation at 0.25 mg/ml measured at 15 min relative to trolox
[13] = Antioxidant activity assessed as inhibition of ABTS radical formation at 1 mg/ml measured at 20 min relative to trolox
[14] = Antioxidant activity assessed as inhibition of ABTS radical formation at 0.03 mg/ml measured at 20 min relative to trolox
[15] = Antioxidant activity assessed as inhibition of ABTS radical formation at 0.25 mg/ml measured at 5 min relative to trolox
[16] = Antioxidant activity assessed as inhibition of ABTS radical formation at 1 mg/ml measured at 5 min relative to trolox
[17] = Antioxidant activity assessed as inhibition of ABTS radical formation at 0.5 mg/ml measured at 5 min relative to trolox
[18] = Antioxidant activity assessed as inhibition of ABTS radical formation at 0.12 mg/ml measured at 5 min relative to trolox
[19] = Antioxidant activity assessed as inhibition of ABTS radical formation at 0.03 mg/ml measured at 10 min relative to trolox
[20] = Antioxidant activity assessed as inhibition of ABTS radical formation at 0.25 mg/ml measured at 10 min relative to trolox
[21] = Antioxidant activity assessed as inhibition of ABTS radical formation at 0.12 mg/ml measured at 20 min relative to trolox
[22] = Antioxidant activity assessed as trolox equivalent of ABTS radical scavenging activity at 15 min
[23] = Antioxidant activity assessed as inhibition of ABTS radical formation at 0.06 mg/ml measured at 15 min relative to trolox
[24] = Antioxidant activity assessed as inhibition of ABTS radical formation at 0.5 mg/ml measured at 20 min relative to trolox
[25] = Antioxidant activity assessed as inhibition of ABTS radical formation at 0.06 mg/ml measured at 20 min relative to trolox
[26] = Antioxidant activity assessed as inhibition of ABTS radical formation at 0.03 mg/ml measured at 15 min relative to trolox
[27] = Antioxidant activity assessed as inhibition of ABTS radical formation at 0.06 mg/ml measured at 5 min relative to trolox
[28] = Antioxidant activity assessed as inhibition of ABTS radical formation at 0.5 mg/ml measured at 10 min relative to trolox
[29] = Antioxidant activity assessed as inhibition of ABTS radical formation at 0.06 mg/ml measured at 10 min relative to trolox
[30] = Antioxidant activity assessed as inhibition of ABTS radical formation at 0.12 mg/ml measured at 10 min relative to trolox
Rattus norvegicus [31] = assay: Anti-inflammatory activity in fasted Rattus norvegicus Wistar (rat) assessed as inhibition of carrageenan-induced paw edema at 1 mg/kg, ip administered 1 hr prior to carrageenan challenge measured at 5 hr relative to control; conditions: route intraperitoneal
Rattus norvegicus [32] = assay: Anti-inflammatory activity in fasted Rattus norvegicus Wistar (rat) assessed as inhibition of carrageenan-induced paw edema at 1 mg/kg, ip administered 1 hr prior to carrageenan challenge measured at 3 hr relative to control; conditions: route intraperitoneal
Rattus norvegicus [33] = assay: Anti-inflammatory activity in fasted Rattus norvegicus Wistar (rat) assessed as inhibition of carrageenan-induced paw edema at 1 mg/kg, ip administered 1 hr prior to carrageenan challenge measured at 1 hr relative to control; conditions: route intraperitoneal
Rattus norvegicus [34] = assay: Anti-inflammatory activity in fasted Rattus norvegicus Wistar (rat) assessed as inhibition of carrageenan-induced paw edema at 0.5 mg/kg, ip administered 1 hr prior to carrageenan challenge measured at 5 hr relative to control; conditions: route intraperitoneal
Rattus norvegicus [35] = assay: Anti-inflammatory activity in fasted Rattus norvegicus Wistar (rat) assessed as inhibition of carrageenan-induced paw edema at 0.1 mg/kg, ip administered 1 hr prior to carrageenan challenge measured at 1 hr relative to control; conditions: route intraperitoneal
Rattus norvegicus [36] = assay: Anti-inflammatory activity in fasted Rattus norvegicus Wistar (rat) assessed as inhibition of carrageenan-induced paw edema at 0.5 mg/kg, ip administered 1 hr prior to carrageenan challenge measured at 1 hr relative to control; conditions: route intraperitoneal
Rattus norvegicus [37] = assay: Anti-inflammatory activity in fasted Rattus norvegicus Wistar (rat) assessed as inhibition of carrageenan-induced paw edema at 0.5 mg/kg, ip administered 1 hr prior to carrageenan challenge measured at 3 hr relative to control; conditions: route intraperitoneal
Rattus norvegicus [38] = assay: Anti-inflammatory activity in fasted Rattus norvegicus Wistar (rat) assessed as inhibition of carrageenan-induced paw edema at 0.1 mg/kg, ip administered 1 hr prior to carrageenan challenge measured at 3 hr relative to control; conditions: route intraperitoneal
Rattus norvegicus [39] = assay: Anti-inflammatory activity in fasted Rattus norvegicus Wistar (rat) assessed as inhibition of carrageenan-induced paw edema at 0.1 mg/kg, ip administered 1 hr prior to carrageenan challenge measured at 5 hr relative to control; conditions: route intraperitoneal
[40] = system: Radical scavenging activity; assay: Antioxidant activity assessed as inhibition of DPPH radical formation at 0.2 to 1 mg/ml measured at 30 min relative to trolox

| SMILES | Activity [1] | Imax [2] | Imax [3] | Imax [4] | Activity [5] | Activity [7] | Imax [8] | Imax [10] | Imax [11] | Imax [12] | Imax [13] | Imax [14] | Imax [15] | Imax [16] | Imax [17] | Imax [18] | Imax [19] | Imax [20] | Imax [21] | Activity [22] | also measured |
| --- | --- | --- | --- | --- | --- | --- | --- | --- | --- | --- | --- | --- | --- | --- | --- | --- | --- | --- | --- | --- | --- |
| COc1cc([C@@H]2c3c(cc(OC)c(O)c3OC)C[C@H](CO)[C@H]2CO[C@@H]2O[C@H](CO)[C@@H](O)[C@H](O)[C@H]2O)cc(OC)c1O | 1.58 mMequiv/mg | 55.3% | 30.9% | 60.1% | 1.19 mMequiv/mg | 1.33 mMequiv/mg | 47.8% | 60.9% | 13.2% | 41.6% | 65.5% | 23.3% | 31.9% | 49.4% | 48.5% | 23.8% | 15.3% | 37.8% | 35.7% | 1.45 mMequiv/mg | Imax [6]: 64.4%; IC50 [9]: 251.1 µg/mL (≈ 431 µM); Imax [23]: 24.6%; Imax [24]: 66.6%; Imax [25]: 29.9%; Imax [26]: 18.9%; Imax [27]: 18%; Imax [28]: 55.5%; Imax [29]: 20.8%; Imax [30]: 27.2% |
| C[C@@H]1C[C@H]2[C@@H]3CCC4=CC(=O)C=C[C@]4(C)[C@@]3(F)[C@@H](O)C[C@]2(C)[C@@]1(O)C(=O)CO [DEXAMETHASONE] |  |  |  |  |  |  |  |  |  |  |  |  |  |  |  |  |  |  |  |  | inhibition in vivo at 1 mg/kg (Rattus norvegicus [31]): 40%; inhibition in vivo at 1 mg/kg (Rattus norvegicus [32]): 30%; inhibition in vivo at 1 mg/kg (Rattus norvegicus [33]): 23% |
| O=C1C[C@H](c2ccc(O)cc2)Oc2cc(Oc3c(O)cc4c(c3O)C(=O)C[C@H](c3ccc(O)cc3)O4)cc(O)c21 [MASAZINOFLAVANONE] | 1.2 mMequiv/mg | 73% | 43.2% | 75.5% | 1.12 mMequiv/mg | 1.15 mMequiv/mg | 52.3% | 62.5% | 13.3% | 49.8% | 77.7% | 18.3% | 40.9% | 72% | 59.5% | 32.8% | 15.1% | 47.7% | 45.7% | 1.18 mMequiv/mg | inhibition in vivo at 0.5 mg/kg (Rattus norvegicus [34]): 14%; inhibition in vivo at 0.1 mg/kg (Rattus norvegicus [35]): 7%; inhibition in vivo at 1 mg/kg (Rattus norvegicus [31]): 27%; inhibition in vivo at 0.5 mg/kg (Rattus norvegicus [36]): 24%; inhibition in vivo at 0.5 mg/kg (Rattus norvegicus [37]): 25%; inhibition in vivo at 1 mg/kg (Rattus norvegicus [32]): 31%; inhibition in vivo at 0.1 mg/kg (Rattus norvegicus [38]): 8%; inhibition in vivo at 1 mg/kg (Rattus norvegicus [33]): 31%; Imax [23]: 36.2%; Imax [24]: 64.4%; Imax [25]: 38.4%; inhibition in vivo at 0.1 mg/kg (Rattus norvegicus [39]): 10%; Imax [26]: 16.3%; Imax [27]: 26.7%; Imax [28]: 60.6%; Imax [29]: 30.4%; Imax [30]: 35.9% |
| O=c1c(O)c(-c2cc(O)c(O)c(O)c2)oc2cc(O)cc(O)c12 [MYRICETIN] | 2.4 mMequiv/mg | 99.8% | 51.1% | 99.8% | 2.4 mMequiv/mg | 2.4 mMequiv/mg | 88.6% | 98.6% | 13.3% | 86.1% | 99.8% | 16.6% | 78.8% | 99.7% | 98.5% | 45.4% | 14.5% | 83.2% | 53.2% | 2.38 mMequiv/mg | IC50 [9]: 22 µg/mL (≈ 69.1 µM); Imax [40]: 75.1%; Imax [23]: 31.6%; Imax [24]: 98.6%; Imax [25]: 32.8%; Imax [26]: 16%; Imax [27]: 27.8%; Imax [28]: 98.7%; Imax [29]: 29.8%; Imax [30]: 48.3% |
